Source: US7777035B2, “Azaindazole compounds and methods of use” (Chemocentryx, Inc., priority 2005, dated 2010)

target: T1, CCR1 (Homo sapiens, UniProt P32246); assay: CCR1 chemotaxis assay or binding assay (activity given for either); settings: either the chemotaxis assay or binding assay; CCR1 expressing cells (THP-1 or human monocytes); read-out: Activity (IC50 class)
T1 construct: host or cells: THP-1 cells or monocytes isolated from human buffy coats
T1 sequence (P32246 1-355): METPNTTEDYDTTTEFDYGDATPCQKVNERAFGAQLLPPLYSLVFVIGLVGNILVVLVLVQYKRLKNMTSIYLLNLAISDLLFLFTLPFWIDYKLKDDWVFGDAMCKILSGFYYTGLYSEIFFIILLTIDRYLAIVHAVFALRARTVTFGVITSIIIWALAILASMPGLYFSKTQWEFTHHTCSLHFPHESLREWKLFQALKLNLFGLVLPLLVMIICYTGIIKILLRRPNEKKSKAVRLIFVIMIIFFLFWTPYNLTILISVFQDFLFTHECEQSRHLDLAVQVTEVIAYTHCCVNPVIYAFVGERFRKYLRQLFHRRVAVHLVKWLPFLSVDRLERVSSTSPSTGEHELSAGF
Protocol: Cells were grown under 5% CO2/95% air, 100% humidity at 37° C. and subcultured twice weekly at 1:5 (cells were cultured at a density range of 2×10^5 to 2×10^6 cells/mL) and harvested at 1×10^6 cells/mL. THP-1 cells express CCR1 and can be used in CCR1 binding and functional assays.
Monocytes were isolated from human buffy coats using the Miltenyi bead isolation system (Miltenyi, Auburn, Calif.). Briefly, following a Ficoll gradient separation to isolate peripheral blood mononuclear cells, cells were washed with PBS and the red blood cells lysed using standard procedures. Remaining cells were labeled with anti-CD14 antibodies coupled to magnetic beads (Miltenyi Biotech, Auburn, Calif.). Labeled cells were passed through AutoMACS (Miltenyi, Auburn, Calif.) and positive fraction collected. Monocytes express CCR1 and can be used in CCR1 binding and functional assays.
CCR1 expressing cells were centrifuged and resuspended in assay buffer (20 Mm HEPES pH 7.1, 140 Mm NaCl, 1 Mm CaCl2, 5 Mm MgCl2, and with 0.2% bovine serum albumin) to a concentration of 5×10^6 cells/mL for THP-1 cells and 5×10^5 for monocytes. Binding assays were set up as follows. […] Reactions were aspirated onto GF/B glass filters pre-soaked in 0.3% polyethyleneimine (PEI) solution, on a vacuum cell harvester (Packard Instruments; Meriden, Conn.). Scintillation fluid (40 μl; Microscint 20, Packard Instruments) was added to each well, the plates were sealed and radioactivity measured in a Topcount scintillation counter (Packard Instruments). Control wells containing either diluent only (for total counts) or excess MIP-1α or MIP-1β (1 μg/mL, for non-specific binding) were used to calculate the percent of total inhibition for compound. The computer program Prism from GraphPad, Inc. (San Diego, Calif.) was used to calculate IC50 values.
Chemotaxis assays were performed using 5 ┌ m pore polycarbonate, polyvinylpyrrolidone-coated filters in 96-well chemotaxis chambers (Neuroprobe; Gaithersburg, Md.) using chemotaxis buffer (Hank's balanced salt solution (HBSS) and 1% FBS). CCR1 chemokine ligands (i.e., MIP-1α, CCL15/Leukotactin; R&D Systems; Minneapolis, Minn.) are use to evaluate compound mediated inhibition of CCR1 Mediated migration. Other chemokines (i.e., SDF-1α; R&D Systems; Minneapolis, Minn.) are used as specificity controls. […] The chambers were incubated 1-2 hours at 37° C., and the number of cells in the lower chamber quantified either by direct cell counts in five high powered fields per well or by the CyQuant assay (Molecular Probes), a fluorescent dye method that measures nucleic acid content and microscopic observation.
THP-1 cells and monocytes lack other chemokine receptors that bind the same set of chemokine ligands as CCR1 (i.e., MIP-1α, MPIF-1, Leukotactin, etc.). Equal numbers of cells were added to each well in the plate. The cells were then incubated with radiolabeled MIP-1α. Unbound ligand was removed by washing the cells, and bound ligand was determined by quantifying radioactive counts. […] Percent inhibition was determined by the equation: […]
In the assay, the amount of compound was varied; while cell number and ligand concentration were held constant.
One of the primary functions of chemokines is their ability to mediate the migration of chemokine receptor-expressing cells, such as white blood cells. […] THP-1 Myelomonocytic leukemia cells, which resemble monocytes, as wells as freshly isolated monocytes, were used as targets for chemoattraction by CCR1 chemokine ligands (i.e., MIP-1α, CCL15/leukotactin). […] In this assay, the amount of compound was varied; while cell number and chemokine agonist concentrations were held constant. After the chemotaxis chambers were incubated 1-2 hours at 37° C., the responding cells in the lower chamber were quantified by labeling with the CyQuant assay (Molecular Probes), a fluorescent dye method that measures nucleic acid content, and by measuring with a Spectrafluor Plus (Tecan).

Compound | IC50 [µM]
COc1cc(N2CCN(C(=O)Cn3nc(-c4nccs4)c4cccnc43)CC2)ccc1Cl [Compound 1.011] | 2.5 to 12.5
COc1cc(N2CCN(C(=O)Cn3nc(C)c4cccnc43)CC2)ccc1Cl [Compound 1.014] | 1 to 2.5
COc1cc(N2CCN(C(=O)Cn3nc(-c4nccs4)c4cccnc43)[C@@H](C)C2)c(F)cc1Cl [Compound 1.021] | < 1
COc1cc(N2CCN(C(=O)Cn3nc(-c4ccccn4)c4cccnc43)[C@@H](C)C2)c(F)cc1Cl [Compound 1.022] | < 1
COc1cc(N2CCN(C(=O)Cn3nc(C)c4cccnc43)CC2)ccc1Cl [Compound 1.023] | < 1
COc1cc(N2CCN(C(=O)Cn3nc(-c4nccs4)c4cccnc43)CC2)ccc1Cl [Compound 1.025] | < 1
COc1cc(N2CCN(C(=O)Cn3nc(C#N)c4cccnc43)CC2)ccc1Cl [Compound 1.026] | < 1
COc1cc(N2CCN(C(=O)Cn3cc4ncccc4n3)CC2)ccc1Cl [Compound 1.027] | < 1
COc1cc(N2CCN(C(=O)Cn3ncc4ncccc43)CC2)ccc1Cl [Compound 1.028] | < 1
COc1cc(N2CCN(C(=O)Cn3nc4ncccc4c3Cl)CC2)ccc1Cl [Compound 1.029] | < 1
COc1cc(N2CCN(C(=O)Cn3ncc4ccc[n+]([O-])c43)CC2)ccc1Cl [Compound 1.030] | < 1
COc1cc(N2CCN(C(=O)Cn3ncc4ccc(C)nc43)CC2)ccc1Cl [Compound 1.031] | < 1
COc1cc(N2CCN(C(=O)Cn3cc4ccc(C)nc4n3)CC2)ccc1Cl [Compound 1.032] | < 1
COc1cc(N2CCN(C(=O)Cn3nc(N4CCOCC4)c4cccnc43)CC2)ccc1Cl [Compound 1.033] | < 1
COc1cc(N2CCN(C(=O)Cn3ncc4ccncc43)[C@@H](C)C2)c(F)cc1Cl [Compound 1.034] | < 1
COc1cc(N2CCN(C(=O)Cn3ncc4cc[n+]([O-])cc43)CC2)ccc1Cl [Compound 1.035] | < 1
COc1cc(N2CCN(C(=O)Cn3cc4c(Cl)nccc4n3)CC2)ccc1Cl [Compound 1.036] | < 1
COc1cc(N2CCN(C(=O)Cn3cc4c(I)ccnc4n3)CC2)ccc1Cl [Compound 1.037] | < 1
COc1cc(N2CCN(C(=O)Cn3ncc4c(I)ccnc43)CC2)ccc1Cl [Compound 1.038] | < 1
COc1cc(N2CCN(C(=O)Cn3ncc4c(S(C)(=O)=O)ccnc43)CC2)ccc1Cl [Compound 1.039] | < 1

Compound | IC50 [µM]
COc1cc(N2CCN(C(=O)Cn3nc(CN=[N+]=[N-])c4cccnc43)CC2)ccc1Cl [Compound 1.040] | < 1
COc1cc(N2CCN(C(=O)Cn3nc(CS(=O)(=O)O)c4cccnc43)CC2)ccc1Cl [Compound 1.041] | 1 to 2.5
COc1cc(N2CCN(C(=O)Cn3ncc4cc(Cl)cnc43)CC2)ccc1Cl [Compound 1.042] | < 1
COc1cc(N2CCN(C(=O)Cn3ncc4c(Cl)ncnc43)CC2)ccc1Cl [Compound 1.044] | < 1
COc1cc(N2CCN(C(=O)Cn3ncc4c(OC)ncnc43)CC2)ccc1Cl [Compound 1.045] | < 1
COc1cc(N2CCN(C(=O)Cn3cc4ccc(Cl)nc4n3)CC2)ccc1Cl [Compound 1.046] | < 1
COc1cc(N2CCN(C(=O)Cn3ncc4ccc(Cl)nc43)CC2)ccc1Cl [Compound 1.047] | < 1
COc1cc(N2CCN(C(=O)Cn3ncc4ccc(N=[N+]=[N-])nc43)CC2)ccc1Cl [Compound 1.048] | < 1
COc1cc(N2CCN(C(=O)Cn3ncc4ccc(N)nc43)CC2)ccc1Cl [Compound 1.049] | < 1
COc1cc(N2CCN(C(=O)Cn3ncc4ccnc(N=[N+]=[N-])c43)CC2)ccc1Cl [Compound 1.050] | < 1
COc1cc(N2CCN(C(=O)Cn3ncc4ccnc(N)c43)CC2)ccc1Cl [Compound 1.051] | < 1
COc1cc(N2CCN(C(=O)Cn3nc4ncccc4c3-c3ncco3)CC2)ccc1Cl [Compound 1.052] | < 1
COc1cc(N2CCN(C(=O)Cn3nc(C)c4cc(N)cnc43)CC2)ccc1Cl [Compound 1.053] | < 1
COc1cc(N2CCN(C(=O)Cn3nc(C)c4cc([N+](=O)[O-])cnc43)CC2)ccc1Cl [Compound 1.054] | < 1
COc1cc(N2CCN(C(=O)Cn3nc(N)c4ccc(C)nc43)CC2)ccc1Cl [Compound 1.055] | < 1
COc1cc(N2CCN(C(=O)Cn3nc(-c4ncon4)c4cccnc43)[C@@H](C)C2)c(F)cc1Cl [Compound 1.056] | < 1
COc1cc(N2CCN(C(=O)Cn3nc(C(=N)NO)c4cccnc43)CC2)ccc1Cl [Compound 1.057] | < 1
COc1cc(N2CCN(C(=O)Cn3nc(-c4ncon4)c4cccnc43)CC2)ccc1Cl [Compound 1.058] | < 1
COc1cc(N2CCN(C(=O)Cn3nc(-c4noc(C)n4)c4cccnc43)CC2)ccc1Cl [Compound 1.059] | < 1

Results, then the compound that gave them:

IC50 [µM] | Compound
< 1 | COc1cc(N2CCN(C(=O)Cn3ncc4cccnc43)[C@@H](C)C2)c(F)cc1Cl [Compound 1.001]
< 1 | COc1cc(N2CCN(C(=O)Cn3cc4cccnc4n3)[C@@H](C)C2)c(F)cc1Cl [Compound 1.002]
< 1 | COc1cc(N2CCN(C(=O)Cn3nc(N)c4cccnc43)[C@@H](C)C2)c(F)cc1Cl [Compound 1.003]
< 1 | COc1cc(N2CCN(C(=O)Cn3nc(Cl)c4cccnc43)CC2)ccc1Cl [Compound 1.004]
< 1 | COc1cc(N2CCN(C(=O)Cn3nc(C)c4cccnc43)[C@@H](C)C2)c(F)cc1Cl [Compound 1.005]
< 1 | COc1cc(N2CCN(C(=O)Cn3cc4cccnc4n3)CC2)ccc1Cl [Compound 1.006]
< 1 | COc1cc(N2CCN(C(=O)Cn3ncc4cccnc43)CC2)ccc1Cl [Compound 1.007]
< 1 | COc1cc(N2CCN(C(=O)Cn3ncc4cnccc43)[C@@H](C)C2)c(F)cc1Cl [Compound 1.008]
< 1 | COc1cc(N2CCN(C(=O)Cn3cc4ccncc4n3)[C@@H](C)C2)c(F)cc1Cl [Compound 1.009]
< 1 | COc1cc(N2CCN(C(=O)Cn3nc(-c4ccccn4)c4cccnc43)CC2)ccc1Cl [Compound 1.010]
< 1 | COc1cc(N2CCN(C(=O)Cn3ncc4cccnc43)CC2)c(F)cc1Cl [Compound 1.012]
< 1 | COc1cc(N2CCN(C(=O)Cn3cc4cccnc4n3)CC2)c(F)cc1Cl [Compound 1.013]
< 1 | COc1cc(N2CCN(C(=O)Cn3nc(-c4ncco4)c4cccnc43)CC2)ccc1Cl [Compound 1.015]
< 1 | COc1cc(N2CCN(C(=O)Cn3nc(F)c4cccnc43)CC2)ccc1Cl [Compound 1.016]
< 1 | COc1cc(N2CCN(C(=O)Cn3nc(-c4ncco4)c4cccnc43)[C@@H](C)C2)c(F)cc1Cl [Compound 1.017]
< 1 | COc1cc(N2CCN(C(=O)Cn3cc4ccncc4n3)CC2)ccc1Cl [Compound 1.018]
< 1 | COc1cc(N2CCN(C(=O)Cn3ncc4ccncc43)CC2)ccc1Cl [Compound 1.019]
